Assay results as given in patent US9889108B2, “Compositions and methods for treating non-alcoholic steatohepatitis” (priority 2013, dated 2018).

Experiments:
CYP450 = conditions: at free concentrations observed in humans; cited from earlier work
platelets from rabbits = experiment: Platelet anti-aggregation, rabbit platelets; format: cell-based
subjects with NASH = experiment: Phase II double blind, placebo-controlled clinical trial of EPA-E in subjects with NASH; format: in vivo, human; set-up: Efficacy, proportion of responders (NAS Score ≦3 or improvement of ≧2 across at least 2 of NAS components): dose or concentration left out as unconfirmed
Excerpt: The non-alcoholic fatty liver disease activity score (NAS) is defined as the unweighted sum of the values for steatosis (ranging from 0-3), lobular inflammation (ranging from 0-3) and ballooning (ranging from 0-2), thereby providing a range of NAS score of from 0 to 8. […] Alternatively, patients can show an improvement in NAS by a value of ≧2 across at least two of the NAS components, together with no worsening in fibrosis. Alternatively, patients can show an improvement in NAS score by ≧3, 4, 5, 6, 7 or 8. This example provides the protocol used for an ongoing phase II clinical trial, double blind, placebo-controlled study to investigate the safety, efficacy, and pharmacokinetic profile of two doses of EPA-E in subjects with NASH. Up to 70 subjects were enrolled into each treatment arm, for a total of 210 subjects to be enrolled. Block randomization using an interactive voice response system (IVRS) was used to assign patients in a 1:1:1 ratio to two active doses and placebo. Patients were stratified at randomization by presence or absence of diabetes. Patients with diabetes comprised no more than 25% of the total number of patients enrolled. […] Subjects were required to have a liver biopsy with proven NASH in the 6 month period prior to screening. The Pharmacokinetic profile for EPA-E was evaluated in a subgroup of subjects in specified sites. Subjects were approached prior to providing informed consent to determine if they will participate in the PK group subset. Approximately 36 subjects participated in the PK subset evaluation (12 from each treatment arm, to include 6 males and 6 females). In order to support the trial, EPA-E capsules and matching placebo capsules were prepared. EPA-E capsule is an oval soft gelatin capsule containing 300 mg of EPA-E as an active ingredient. […] These capsules are unidentifiable as EPA-E capsules or placebo capsules. Subjects were administered orally 3 capsules 3 times daily, immediately after meals. 1. Diagnosis of definite NASH by the central reading pathologists: • Liver biopsy slides will be submitted for evaluation by the central pathologists according to one of the following criteria: • a. Previous liver biopsies must have been obtained within 6 months prior to informed consent and should be judged by the local pathologist as showing NAS ≧4 with a minimum score of 1 each for steatosis and lobular inflammation plus […] ballooning OR at least 1a sinusoidal fibrosis AND a finding of possible or definite steatohepatitis • b. For liver biopsies performed after informed consent is obtained, all slides will be submitted for reading by the central pathologists in conformity with the independent pathology review charter (IPRC)

[1] = tested on: galactosamine-induced steatohepatitis mouse model; experiment: Galactosamine-induced steatohepatitis mouse model; format: in vivo; conditions: oral administration at 1000 mg/kg; by suppressing triglyceride accumulation
rabbits = experiment: Lipid lowering in rabbits; format: in vivo, rabbit
[2] = tested on: central nervous, autonomic nervous, respiratory and cardiovascular systems; experiment: Safety pharmacology studies; format: in vivo; conditions: oral doses up to 3000 mg/kg
arteries in rabbits = experiment: Elasticity of arteries in rabbits; format: in vivo, rabbit
platelets from rats = experiment: Platelet anti-aggregation, rat platelets; format: cell-based
[3] = Absorption, distribution and metabolites after oral 14C-EPA-E in rats; format: in vivo, rat
Method: (§1) EPADEL is a product containing ethyl all-cis-5,8,11,14,17-eicosapentaenoate (EPA-E), one of the n-3 essential fatty acids. The preclinical absorption, distribution, metabolism and excretion (ADME) characteristics of EPA-E have been determined primarily in rats.
After administration of ^14C-EPA-E into the ligated intestine of rats, the residual radioactivity in the intestine at 24 hours was only 4.6% of the administered dose. Radioactivity transferred to the plasma and lymph was mainly detected in the triglyceride (TG) fraction in the early phase after dosing, while distribution to the free fatty acid (FFA) fraction was slight at all timepoints. […] Orally administered EPA-E was primarily incorporated in adrenal gland lipids as cholesterol esters of the fatty acids eicosapentaenoic acid (EPA), docosapentaenoic acid (DPA) and docosahexaenoic acid (DHA).
After oral administration of ^14C-EPA-E to the rat, EPA, DPA and DHA were detected as metabolites in the total lipid fraction of the plasma and tissues (liver, fat, heart and brain). […] In the total lipid fraction of the liver, the radioactivity originated mainly from EPA, DPA and DHA. Thus, it is considered that EPA, DPA and DHA are the predominant metabolites of ^14C-EPA-E in tissues, as constituent fatty acids of the total lipid fraction.

hamsters = experiment: Lipid lowering in hamsters; format: in vivo, hamster
platelets from humans = experiment: Platelet anti-aggregation, human platelets; format: cell-based
rats = experiment: Lipid lowering in rats; format: in vivo, rat
[4] = tested on: methionine-choline deficient diet rat model of nonalcoholic steatohepatitis; experiment: Methionine-choline deficient diet rat model of nonalcoholic steatohepatitis; format: in vivo; conditions: repeat oral administration at 1000 mg/kg; by suppressing inflammation and oxidative stress
[5] = tested on: mouse diet-induced hepatic steatosis model; experiment: Mouse diet-induced hepatic steatosis model; format: in vivo; conditions: repeat oral administration at ≧0.1 mg/g
[6] = Excretion of radioactivity after single oral administration (rats); format: in vivo, rat
Method: as §1
Consequently, when EPA-E is administered orally to humans, it would appear that it is well absorbed, even though the unchanged ethyl ester form is not detected, and the free form (EPA) is only detected at a very low level, in the blood. Due to this absorption mechanism of essential fatty acids, the administered EPA-E exists as a blood-constituent fatty acid in the total lipids. […] Radioactivity was primarily excreted in expired air (44%) after single oral administration at 30 mg/kg EPA-E with minimal excretion in bile and urine (˜3%) and approximately 20% excreted in feces.
Renal excretion was the elimination route for several minor highly polar metabolites (<0.4%), but EPA-E, EPA, DPA or DHA were not detected in the urine. In feces, EPA-E and EPA, evidently derived from the unabsorbed drug, were detected; however, no DPA or DHA was detected in the feces.

CC/C=C\C/C=C\C/C=C\C/C=C\C/C=C\CCCC(=O)O [EPA, eicosapentaenoic acid]
Inhibition of CYP450 (CYP450): unlikely to inhibit

CC/C=C\C/C=C\C/C=C\C/C=C\C/C=C\CCCC(=O)OCC [EPA-E, ethyl all-cis-5,8,11,14,17-eicosapentaenoate]
Effect on platelet aggregation (platelets from rabbits): anti-aggregation effects
Serum EPA/AA ratios, patients with sFas≦9.5 ng/mL versus sFas >9.5 ng/mL (subjects with NASH; Day 365, FIG. 21 and FIG. 22): higher
Response rate (subjects with NASH; fasting glucose=<125 mg/dL and HbA1c=<6.4, Study arm 1, FIG. 4): higher response to rate
Efficacy, response rate (subjects with NASH; fasting glucose=<125 mg/dL and HbA1c=<6.4, Study arm 2, FIG. 4): equivalent to that of Study arm 1
Efficacy, NASH response (change of NAS score) (subjects with NASH; patients with GGT levels=<33 IU/L, Study arm 1 and 2, FIG. 9): higher efficacy
Efficacy, preliminary endpoint achievement rate (subjects with NASH; patients with GGT levels=<60 IU/L, Study arm 1 and 2, FIG. 8): higher efficacy
Efficacy, improvement of serum EPA/AA ratio on Day 365 (subjects with NASH; patients with GGT ≦33 IU/L, Study arm 2, FIG. 10): higher efficacy
Efficacy, proportion of responders (subjects with NASH; patients with HbA1c=<6.4, Study arm 1, FIG. 2): higher efficacy
Efficacy, proportion of responders (subjects with NASH; patients with HbA1c=<6.4, Study arm 2, FIG. 2): equivalent to that of Study arm 1
Efficacy, proportion of responders (subjects with NASH; patients with NASH risk score equal to or less than 4.0, especially 3.0, 1800 mg EPA-E, TID, FIG. 19): higher efficacy
Efficacy, proportion of responders (subjects with NASH; patients with fasting glucose =<125 mg/dL, Study arm 1, FIG. 3): higher efficacy
Efficacy, proportion of responders (subjects with NASH; patients with fasting glucose =<125 mg/dL, Study arm 2, FIG. 3): equivalent to that of Study arm 1
Efficacy, proportion of responders (subjects with NASH; patients with sFas equal to or less 10.0 ng/mL and/or M30 equal to or less 1500 U/L, 1800 mg EPA-E, TID and 2700 mg EPA-E, TID, FIG. 18): higher efficacy
Efficacy, proportion of responders (subjects with NASH; patients with serum M30 equal to or less 1500 U/L, especially 900 U/L, more especially 500 U/L, 1800 mg EPA-E, TID, FIG. 17): higher efficacy
Efficacy, proportion of responders (subjects with NASH; patients with serum sFas equal to or less 9.5 ng/mL, 1800 mg EPA-E, TID, FIG. 14): higher efficacy
Efficacy, NASH response (change of NAS score) (subjects with NASH; patients with serum sFas equal to or less 9.5 ng/mL, Study arm 1 (1800 mg EPA-E, TID), FIG. 16): higher efficacy
Efficacy, proportion of responders (subjects with NASH; patients with serum sFas equal to or less 10.0 ng/mL, especially 9.5 ng/mL, 1800 mg EPA-E, TID, FIG. 15): higher efficacy
Efficacy, proportion of responders (subjects with NASH; patients without biliary tract disease markers (GGT ≦33 IU/L), Study arm 1 (600 mg TID) and Study arm 2 (900 mg TID), FIG. 7): higher efficacy
Efficacy, proportion of responders (NAS Score ≦3 or improvement of ≧2 across at least 2 of NAS components) (subjects with NASH; patients without diabetes or with mild diabetes compared to diabetic patients, Study arm 1, FIG. 1): higher efficacy
Efficacy, proportion of responders (subjects with NASH; patients without diabetes or with mild diabetes, Study arm 2 (900 mg EPA-E, TID), FIG. 1): equivalent to that of Study arm 1
Progression of steatohepatitis [1]: retarded progression of steatohepatitis
Lipid lowering (rabbits): lower lipids
Effect on central nervous, autonomic nervous, respiratory and cardiovascular systems [2]: no effect
Elasticity of arteries (arteries in rabbits): preserve the elasticity of arteries
Effect on platelet aggregation (platelets from rats): anti-aggregation effects
Absorption ([3]; single oral dose of 14C-EPA-E 30-1000 mg/kg, rats, mainly through the lymphatic route): well-absorbed
Lipid lowering (hamsters): lower lipids
Effect on platelet aggregation (platelets from humans): anti-aggregation effects
Lipid lowering (rats): lower lipids
Fibrosis [4]: inhibited fibrosis
Fat accumulation [5]: suppressed fat accumulation
Hepatic SREBP-1c levels [5]: suppressing hepatic SREBP-1c levels
EPA-E and EPA in feces ([6]; derived from the unabsorbed drug, no DPA or DHA detected): detected
EPA-E, EPA, DPA or DHA in the urine ([6]; species not given): not detected

CC/C=C\C/C=C\C/C=C\C/C=C\C/C=C\CCCC(=O)OCC [^14C-EPA-E]
Unchanged EPA-E in the plasma or tissues ([3]; after oral administration of 14C-EPA-E to the rat, liver, fat, heart and brain): no unchanged EPA-E was found
Distribution of radioactivity in body tissues ([3]; rats, relatively high levels in brown fat, adrenal, liver and pancreas): widely distributed
